Our source for the IC50 values is patent US6130229A, “Tricyclic compounds having activity as RAS-FPT inhibitors” (Schering Corporation, priority 1997, dated 2000).

The assay concerns the target farnesyl protein transferase. As to the kind of experiment: Inhibition of farnesyl protein transferase (test of WO 95/10514). The note with it: percent inhibition relative to DMSO vehicle control, IC50 estimated. It counts as biochemical. The text has this:
The compounds of the invention can be tested by standard methods, for example by those published in published PCT application WO 95/10514 published Apr. 20, 1995 (starting at page 61), the disclosure of which is hereby incorporated herein by reference. Particularly relevant assays and studies include In vitro enzyme assays, Cell-Based Assays, Cell Mat Assays, and In Vivo Anti-Tumor Studies.
Such Assays and Studies indicate that compounds of the Formula I above are selective inhibitors of Ras-FPT and can be used as anti-tumor agents. The following Table presents IC50 values obtained in the test for Inhibition of farnesyl protein transferase, reported in published PCT application WO 95/10514. Percent inhibition was calculated relative to the DMSO vehicle control, and an IC50 value was estimated.
For `NC(=O)N1CCC(CC(=O)N2CCN(C3c4ccc(Cl)cc4[S+]([O-])Cc4cccnc43)CC2)CC1` (stereo not shown) [Example 32, 4-[2-[4-(8-Chloro-5,11-dihydro-[1]benzothiepino[4,3-b]pyridin-11-yl)-1-piperazinyl]-2-oxoethyl]-1-piperidinecarboxamide 6-oxide], the half-maximal inhibitory concentration (IC50) is greater than 0.38 µM.

Take `O=C(Cc1cc[n+]([O-])cc1)N1CCC(=C2c3cc(Br)c(Cl)cc3OCc3cccnc32)CC1` [Example 7A, 4-(9-Bromo-8-chloro-5,11-dihydro[1]benzoxepino[4,3-b]pyridin-11-ylidene)-1-(4-pyridine-acetyl)piperidine N1-oxide]: the IC50 is greater than 0.4 µM.

Take `N#CNC(=NCc1ccncc1)N1CCC(=C2c3ccc(Cl)cc3SCc3cccnc32)CC1` [Example 23, 4-(8-Chloro-5,11-dihydro[1]benzothiepino[4,3-b]pyridin-11-ylidene)-N-cyano-N'-(4-pyridinylmethyl)-1-piperidine-carboximidamide]: the IC50 was 0.043 µM.

For `O=C(Cc1cc[n+]([O-])cc1)N1CCC(=C2c3ccc(Cl)cc3SCc3cccnc32)CC1` [Example 9B, 4-(8-Chloro-5,11-dihydro-[1]benzothiepino[4,3-b]pyridin-11-ylidene)-1-(4-pyridine-acetyl)piperidine N1-oxide], the IC50 is 0.52 µM.

On to `CSC(=NC#N)N1CCC(=C2c3ccc(Cl)cc3OCc3cccnc32)CC1` [Example 2], for which the IC50 is greater than 0.14 µM.

On to `N#CC=C(c1ccc(F)cc1)N1CCC(=C2c3ccc(Cl)cc3SCc3cccnc32)CC1` [Example 33, 3-[4-(8-Chloro-5,11-dihydro-[1]benzothiepino[4,3-b]pyridin-11-ylidene)-piperidin-1-yl]-3-(4'-fluorophenyl)-2-propene-nitrile], for which the half-inhibitory concentration (IC50) is greater than 0.42 µM.

Consider `CC(C)(C)OC(=O)N1CCC(CC(=O)N2CCC(=C3c4ccc(Cl)cc4S(=O)(=O)Cc4cccnc43)CC2)CC1` [Example 27], for which the IC50 was greater than 1.2 µM.

Take `CC(C)(C)OC(=O)N1CCC(CC(=O)N2CCN(C3c4ccc(Cl)cc4SCc4cccnc43)CC2)CC1` (stereo not shown) [Example 11A, 1,1-Dimethylethyl 4-[2-[4-(8-chloro-5,11-dihydro-[1]benzothiepino[4,3-b]pyridin-11-yl)-1-piperazinyl]2-oxoethyl]-1-piperidinecarboxylate]: the IC50 was greater than 1.1 µM.

For `O=C(Cc1cc[n+]([O-])cc1)N1CCN(C2c3ccc(Cl)cc3S(=O)(=O)Cc3cccnc32)CC1` (stereo not shown) [Example 17A (sulfone), 4-(8-Chloro-5,11-dihydro-[1]benzothiepino[4,3-b]pyridin-11-yl)-1-(4-pyridine-acetyl)piperazine N1,6,6-trioxide], the IC50 is 3.4 µM.

For `CN1Cc2cccnc2C(N2CCN(C(=O)CC3CCN(C(=O)OC(C)(C)C)CC3)CC2)c2ccc(Cl)cc21` (stereo not shown) [Example 38, 1,1-Dimethylethyl 4-[2-[4-(8-chloro-6,11-dihydro-6-methyl-5H-pyrido[3,2-c][1]benzazepin-11-yl)-1-piperazinyl]2-oxoethyl]-1-piperidine-carboxylate], the IC50 was greater than 3.6 µM.

As to `N#CNC(=NCc1ccncc1)N1CCN(C2c3ccc(Cl)cc3SCc3cccnc32)CC1` (stereo not shown) [Example 19, 4-(8-Chloro-5,11-dihydro[1]benzothiepino[4,3-b]pyridin-11-yl)-N-cyano-N'-(4-pyridinylmethyl)-1-piperazine-carboximidamide], the IC50 is 0.061 µM.

Consider `O=C(CC1CCNCC1)N1CCC(=C2c3ccc(Cl)cc3SCc3cccnc32)CC1` [Example 12B, 4-(8-Chloro-5,11-dihydro-[1]benzothiepino[4,3-b]pyridin-11-ylidene)-1-(4-pipeeridine-acetyl)piperidine], for which the IC50 was 0.59 µM.

On to `NC(=O)N1CCC(CC(=O)N2CCC(=C3c4ccc(Cl)cc4S(=O)(=O)Cc4cccnc43)CC2)CC1` [Example 29, 4-[2-[4-(8-Chloro-5,11-dihydro-[1]benzothiepino[4,3-b]pyridin-11-ylidene)-1-piperidinyl]-2-oxoethyl]-1-piperidinecarboxamide-6,6-dioxide], for which the IC50 was greater than 1.1 µM.

Turning to `O=C(Cc1cc[n+]([O-])cc1)N1CCC(=C2c3ccc(Cl)cc3OCc3cc(Br)cnc32)CC1` [Example 4, 4-(3-Bromo-8-chloro-5,11-dihydro[1]benzoxepino[4,3-b]pyridin-11-ylidene)-1-(4-pyridine-acetyl)piperidine N1-oxide], the IC50 was 0.11 µM.

As to `O=C(Cc1ccncc1)N1CCC(=C2c3ccc(Cl)cc3SCc3cccnc32)CC1` [Example 25, 4-(8-Chloro-5,11-dihydro[1]benzothiepino[4,3-b]pyridin-11-ylidene)-1-(pyridine-4-acetyl)-piperidine], the IC50 is 0.19 µM.

On to `O=C(Cc1cc[n+]([O-])cc1)N1CCN(C2c3ccc(Cl)cc3SCc3cccnc32)CC1` (stereo not shown) [Example 9A, 4-(8-Chloro-5,11-dihydro-[1]benzothiepino[4,3-b]pyridin-11-yl)-1-(4-pyridine-acetyl)piperazine N1-oxide], for which the half-inhibitory concentration (IC50) was 0.79 µM.

As for “4-(8-Chloro-5,11-dihydro-[1]benzothiepinof4,3-b]pyridin-11-yl)-1-(4-pyridine-acetyl)piperazine N1,6,6-trioxide [Example 17B]”, the half-maximal inhibitory concentration (IC50) is greater than 1.2 µM.

Consider `CC(C)(C)OC(=O)N1CCC(CC(=O)N2CCC(=C3c4ccc(Cl)cc4SCc4cccnc43)CC2)CC1` [Example 11B, 1,1 -Dimethylethyl 4-[2-[4-(8-chloro-5,11-dihydro-[1]benzothiepino[4,3-b]pyridin-11-ylidene)-1-piperidinyl]2-oxoethyl]-1-piperidine-carboxylate], for which the concentration for half-maximal inhibition (IC50) was 3.2 µM.

For the compound `CN1Cc2cccnc2C(N2CCN(C(=O)CC3CCNCC3)CC2)c2ccc(Cl)cc21` (stereo not shown) [Example 39, 4-(8-Chloro-6,11-dihydro-6-methyl-5H-pyrido[3,2-c][1]benzazepin-11-yl)-1-(4-piperidine-acetyl)piperazine], the 50% inhibitory concentration (IC50) is greater than 1.3 µM.

For `O=C(Cc1ccncc1)N1CCC(=C2c3ccc(Cl)cc3S(=O)(=O)Cc3cccnc32)CC1` [Example 16B, 4-(8-Chloro-5,11-dihydro-[1]benzothiepino[4,3-b]pyridin-11-ylidene)-1-(4-pyridine-acetyl)piperidine 6,6-dioxide], the IC50 is 0.56 µM.

On to `O=C(Cc1ccncc1)N1CCN(C2c3ccc(Cl)cc3S(=O)(=O)Cc3cccnc32)CC1` (stereo not shown) [Example 16A, 4-(8-Chloro-5,11-dihydro-[1]benzothiepino[4,3-b]pyridin-11-yl)-1-(4-pyridine-acetyl)piperazine 6,6-dioxide], for which the half-inhibitory concentration (IC50) is 1 µM.

For `O=C(Cc1cc[n+]([O-])cc1)N1CCC(=C2c3ccc(Cl)cc3OCc3cccnc32)CC1` [Example 7B, 4-(8-Chloro-5,11-dihydro[1]benzoxepino[4,3-b]pyridin-11-ylidene)-1-(4-pyridine-acetyl)piperidine N1-oxide], the concentration for half-maximal inhibition (IC50) is 1.52 µM.

Consider `CN1CCC(CC(=O)N2CCC(=C3c4ccc(Cl)cc4SCc4cccnc43)CC2)CC1` [Example 26, 4-(8-Chloro-5,11-dihydro[1]benzothiepino[4,3-b]pyridin-11-ylidene)-1-(1-methyl-4-piperidine-acetyl)-piperidine], for which the half-maximal inhibitory concentration (IC50) is 1.79 µM.

Turning to `O=C(CSc1ccncc1)N1CCN(C2c3ccc(Cl)cc3SCc3cccnc32)CC1` (stereo not shown) [Example 14A, 4-(8-Chloro-5,11-dihydro-[1]benzothiepino[4,3-b]pyridin-11-yl)-1-[(4-pyridinyl-thio)acetyl]piperazine], the 50% inhibitory concentration (IC50) was 1 µM.

Consider `CN1Cc2cccnc2C(N2CCN(C(=O)Cc3cc[n+]([O-])cc3)CC2)c2ccc(Cl)cc21` (stereo not shown) [Example 34], for which the IC50 was 2.7 µM.

Consider `O=C(Cc1ccncc1)N1CCN(C2c3ccc(Cl)cc3[S+]([O-])Cc3cccnc32)CC1` (stereo not shown) [Example 31, 4-(8-Chloro-5,11-dihydro-[1]benzothiepino[4,3-b]pyridin-11-yl)-1-(4-pyridine-acetyl)piperazine-6-oxide], for which the concentration for half-maximal inhibition (IC50) was 5 µM.

Consider `O=C(Cc1cccnc1)N1CCC(=C2c3ccc(Cl)cc3OCc3cccnc32)CC1` [Example 6, 4-(8-Chloro-5,11-dihydro[1]benz-oxepino[4,3-b]pyridin-11-ylidene)-1-(3-pyridine-acetyl)piperidine], for which the IC50 is 2.3 µM.

With `CSC(=NC#N)N1CCC(=C2c3ccc(Cl)cc3SCc3cccnc32)CC1` [Example 22], the concentration for half-maximal inhibition (IC50) is 0.2 µM.

For `CSC(=NC#N)N1CCN(C2c3ccc(Cl)cc3N(C)Cc3cccnc32)CC1` (stereo not shown) [Example 36, Methyl 4-(8-chloro-6,11-dihydro-6-methyl-5H-pyrido[3,2-c][1]benzazepin-11-yl)-N-cyano-1-piperazinecarboximidothioate], the 50% inhibitory concentration (IC50) was 1.1 µM.

Take `N#CN=C(NCc1ccc[n+]([O-])c1)N1CCC(=C2c3ccc(Cl)cc3SCc3cccnc32)CC1` [Example 24]: the IC50 is 0.038 µM.

For `N#CN=C(NCc1ccc2c(c1)OCO2)N1CCC(=C2c3ccc(Cl)cc3SCc3cccnc32)CC1` [Example 20B], the IC50 is greater than 0.113 µM.

For the compound `CN1CCC(CC(=O)N2CCN(C3c4ccc(Cl)cc4SCc4cccnc43)CC2)CC1` (stereo not shown) [Example 10, 4-(8-Chloro-5,11-dihydro-[1]benzothiepino[4,3-b]pyridin-11-yl)-1-(1-methyl-4-piperidine-acetyl)piperazine], the IC50 was 2.1 µM.

Turning to `O=C(Cc1ccccc1[N+](=O)[O-])C(=O)N1CCN(C2c3ccc(Cl)cc3SCc3cccnc32)CC1` (stereo not shown) [Example 13], the IC50 was 3.8 µM.

Regarding `CN1Cc2cccnc2C(N2CCN(C(=NCc3ccncc3)NC#N)CC2)c2ccc(Cl)cc21` (stereo not shown) [Example 37, 4-(8-Chloro-6,11-dihydro-6-methyl-5H-pyrido[3,2-c][1]benzazepin-11-yl)-N-cyano-N'-(4-pyridinylmethyl)-1-piperazine-carboximidamide], the IC50 is 0.14 µM.

One may read the IC50 as the concentration at which inhibition is half-maximal.
